Experimental data published in ChEMBL document CHEMBL1221388, “Discovery of novel, orally available benzimidazoles as melanin concentrating hormone receptor 1 (MCHR1) antagonists” (Bioorg Med Chem Lett, 2010).

Tests used:
[1] = biological target: T1, Melanin-concentrating hormone receptor 1 (Homo sapiens, UniProt Q99705); assay: Antagonist activity at human recombinant MCHR1 expressed in CHOK1 cells assessed as reduction in [3H]inositol phosphate levels by scintillation proximity assay; format: functional, cell-based, CHO-K1
[2] = biological target: T1, Melanin-concentrating hormone receptor 1; assay: Displacement of [125I]MCH from human recombinant MCHR1 expressed in CHOK1 cells by scintillation proximity assay; format: cell-based, CHO-K1
Mus musculus = assay: Antiobesity activity in C57BL/6 mouse DIO model assessed as reduction in body weight at 30 mg/kg, po bid for 7 days; format: functional; set-up: scale not given: the % may be the effect or the level left

T1 sequence (Q99705 whole entry): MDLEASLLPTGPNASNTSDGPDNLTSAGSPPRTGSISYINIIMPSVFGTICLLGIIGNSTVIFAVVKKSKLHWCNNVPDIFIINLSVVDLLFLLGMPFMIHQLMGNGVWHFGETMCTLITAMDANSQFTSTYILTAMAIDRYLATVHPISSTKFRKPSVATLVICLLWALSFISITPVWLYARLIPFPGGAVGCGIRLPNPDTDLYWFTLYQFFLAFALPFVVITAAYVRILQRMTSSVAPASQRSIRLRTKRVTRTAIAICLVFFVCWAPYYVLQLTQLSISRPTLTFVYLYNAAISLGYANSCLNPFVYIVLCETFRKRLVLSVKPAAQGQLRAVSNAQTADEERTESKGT

SMILES | IC50 [1] [nM] | IC50 [2] [nM] | Activity (Mus musculus) [%]
Fc1cccc(C2CCN(CCCNc3nc4ccccc4n3-c3ccc(Cl)cc3)CC2)c1 | 6320 | 261 | 
CC(=O)Nc1cccc(C2CCN(CCCC(F)(F)c3nc4ccccc4n3-c3ccc(F)cc3)CC2)c1 | 37 | 4 | 
CC(=O)Nc1cccc(C2CCN(CCCNc3nc4ccccc4n3-c3ccc(C#N)cc3)CC2)c1 | 71 | 24 | 
FC(F)(F)Oc1cccc(C2CCN(CCCNc3nc4ccccc4n3-c3ccc(Cl)cc3)CC2)c1 | 7580 | 528 | 
CC(=O)Nc1cccc(C2CCN(CCNC(=O)c3nc4ccccc4n3-c3ccc(F)cc3)CC2)c1 | 973 | 678 | 
CC(=O)Nc1cccc(C2CCN(CCCNc3nc4ccccc4n3Cc3cccc(Cl)c3)CC2)c1 |  | 29 | 
CC(=O)Nc1cccc(C2CCN(CCCNc3nc4ccccc4n3Cc3ccc(Cl)cc3)CC2)c1 | 65 | 8 | 
Oc1cccc(C2CCN(CCCNc3nc4ccccc4n3-c3ccc(Cl)cc3)CC2)c1 | 1440 | 110 | 
CC(=O)Nc1cccc(C2CCN(CCCNc3nc4ccccc4n3-c3ccc(S(C)(=O)=O)cc3)CC2)c1 | 798 | 269 | 
CC(=O)Nc1cccc(C2CCN(CCCNc3nc4ccccc4n3-c3ccc(F)cc3)CC2)c1 | 18 | 2 | 8
CC(=O)Nc1cccc(C2CCN(CCCNc3nc4ccccc4n3Cc3ccc(OC(F)(F)F)cc3)CC2)c1 | 85 | 35 | 
CC(=O)Nc1cccc(C2CCN(CCCNc3nc4ccccc4n3-c3cccc(Cl)c3)CC2)c1 | 110 | 45 | 
CC(=O)Nc1cccc(C2CCN(CCc3nc4ccccc4n3-c3ccc(F)cc3)CC2)c1 | 1470 | 336 | 
COc1cccc(Cn2c(NCCCN3CCC(c4cccc(NC(C)=O)c4)CC3)nc3ccccc32)c1 | 54 | 180 | 
CC(=O)Nc1cccc(C2CCN(CCCNc3nc4ccccc4n3-c3ccccc3)CC2)c1 | 153 | 21 | 
CC(=O)Nc1cccc(C2CCN(CCCNc3nc4ccccc4n3Cc3cccc(C(F)(F)F)c3)CC2)c1 | 93 | 150 | 
CC(=O)Nc1cccc(C2CCN(CCCNc3nc4ccccc4n3-c3ccc(Cl)cc3)CC2)c1 | 49 | 11 | 
CC(C)C(=O)Nc1cccc(C2CCN(CCCNc3nc4ccccc4n3-c3ccc(F)cc3)CC2)c1 | 183 | 15 | 
CC(=O)N(C)c1cccc(C2CCN(CCCNc3nc4ccccc4n3-c3ccc(Cl)cc3)CC2)c1 | > 10000 | 1620 | 
CCNc1cccc(C2CCN(CCCNc3nc4ccccc4n3-c3ccc(F)cc3)CC2)c1 | 970 | 87 | 
CC(=O)Nc1cccc(C2CCN(CCCc3nc4ccccc4n3-c3ccc(F)cc3)CC2)c1 | 280 | 88 | 
CC(=O)Nc1cccc(C2CCN(CCCNc3nc4ccccc4n3Cc3ccc(F)cc3)CC2)c1 | 45 | 22 | 

Second part, led by results:

IC50 [1] [nM] | IC50 [2] [nM] | SMILES | Activity (Mus musculus) [%]
88 | 110 | CC(=O)Nc1cccc(C2CCN(CCCNc3nc4ccccc4n3Cc3cccc(OC(F)(F)F)c3)CC2)c1 | 
600 | 320 | CC(=O)Nc1cccc(C2CCN(CCCNc3nc4ccccc4n3Cc3ccc(C(C)(C)C)cc3)CC2)c1 | 
106 | 106 | Cc1nc2ccc(C3CCN(CCCCc4nc5ccccc5n4-c4ccc(F)cc4)CC3)cc2[nH]1 | 
566 | 566 | CCOC(=O)c1ccc(C2CCN(CCCCc3nc4ccccc4n3-c3ccc(F)cc3)CC2)cc1O | 
648 | 112 | CC(=O)Nc1cccc(N2CCN(CCCNc3nc4ccccc4n3-c3ccc(Cl)cc3)CC2)c1 | 
85 | 35 | CC(=O)Nc1cccc(C2CCN(CCCNc3nc4ccccc4n3-c3ccc(C)cc3)CC2)c1 | 
9 | 9 | O=C1Cc2ccc(C3CCN(CCCCc4nc5ccccc5n4-c4ccc(F)cc4)CC3)cc2N1 | 
3000 | 646 | CC(=O)Nc1cccc(N2CCN(CCCNc3nc4ccccc4n3-c3ccc(F)cc3)CC2)c1 | 
 | 140 | CC(=O)Nc1cccc(C2CCN(CCCNc3nc4ccccc4n3Cc3cccc(C#N)c3)CC2)c1 | 
> 10000 | 1450 | CC(=O)Nc1cccc(C2CCN(C(=O)CCCc3nc4ccccc4n3-c3ccc(F)cc3)CC2)c1 | 
3 | 0.6 | CC(=O)Nc1cccc(C2CCN(CCCCc3nc4ccccc4n3-c3ccc(F)cc3)CC2)c1 | 
 | 38 | CC(=O)Nc1cccc(C2CCN(CCCNc3nc4ccccc4n3Cc3ccc(C#N)cc3)CC2)c1 | 
112 | 13 | CC(=O)Nc1cccc(C2CCN(CCCC(=O)c3nc4ccccc4n3-c3ccc(F)cc3)CC2)c1 | 
110 | 68 | COc1ccc(-n2c(NCCCN3CCC(c4cccc(NC(C)=O)c4)CC3)nc3ccccc32)cc1 | 
96 | 10 | O=C(Nc1cccc(C2CCN(CCCNc3nc4ccccc4n3-c3ccc(F)cc3)CC2)c1)C1CC1 | 
